Common to all, as to assay type: cell-based
The target in assay [1] is EGFR(D770_N771insSVD) expressing Ba/F3 stable cell line (Homo sapiens, UniProt P00533, DUP768-770, cells depend on it). Kind of assay: Cellular proliferation (Alamar Blue) assay, EGFR D770_N771insSVD Ba/F3. To be noted: 72 hr, read-out: D770 IC50. The essentials:
(§1)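 Ba/F3 cells stably expressing the mutant were seeded at 15,000 per well in RPMI with 10% FBS and left 16-18 hours at 37 degree Celsius. Compounds were then added in 3-fold serial dilutions (final 10-0.0005 μM) for 72 hr, and viability was read with Alamar Blue after 3 hours.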

The target of assay [2] is EGFR (A767_dupASV) expressing Ba/F3 stable cell line (Homo sapiens, UniProt P00533, DUP767-769, cells depend on it). Description: Cellular proliferation (Alamar Blue) assay, EGFR A767_dupASV Ba/F3. As to conditions: 72 hr, read-out: A767 IC50. The essentials: as §1
Chain of EGFR (A767_dupASV) expressing Ba/F3 stable cell line (P00533 with tags, fused parts or gaps DUP767-769): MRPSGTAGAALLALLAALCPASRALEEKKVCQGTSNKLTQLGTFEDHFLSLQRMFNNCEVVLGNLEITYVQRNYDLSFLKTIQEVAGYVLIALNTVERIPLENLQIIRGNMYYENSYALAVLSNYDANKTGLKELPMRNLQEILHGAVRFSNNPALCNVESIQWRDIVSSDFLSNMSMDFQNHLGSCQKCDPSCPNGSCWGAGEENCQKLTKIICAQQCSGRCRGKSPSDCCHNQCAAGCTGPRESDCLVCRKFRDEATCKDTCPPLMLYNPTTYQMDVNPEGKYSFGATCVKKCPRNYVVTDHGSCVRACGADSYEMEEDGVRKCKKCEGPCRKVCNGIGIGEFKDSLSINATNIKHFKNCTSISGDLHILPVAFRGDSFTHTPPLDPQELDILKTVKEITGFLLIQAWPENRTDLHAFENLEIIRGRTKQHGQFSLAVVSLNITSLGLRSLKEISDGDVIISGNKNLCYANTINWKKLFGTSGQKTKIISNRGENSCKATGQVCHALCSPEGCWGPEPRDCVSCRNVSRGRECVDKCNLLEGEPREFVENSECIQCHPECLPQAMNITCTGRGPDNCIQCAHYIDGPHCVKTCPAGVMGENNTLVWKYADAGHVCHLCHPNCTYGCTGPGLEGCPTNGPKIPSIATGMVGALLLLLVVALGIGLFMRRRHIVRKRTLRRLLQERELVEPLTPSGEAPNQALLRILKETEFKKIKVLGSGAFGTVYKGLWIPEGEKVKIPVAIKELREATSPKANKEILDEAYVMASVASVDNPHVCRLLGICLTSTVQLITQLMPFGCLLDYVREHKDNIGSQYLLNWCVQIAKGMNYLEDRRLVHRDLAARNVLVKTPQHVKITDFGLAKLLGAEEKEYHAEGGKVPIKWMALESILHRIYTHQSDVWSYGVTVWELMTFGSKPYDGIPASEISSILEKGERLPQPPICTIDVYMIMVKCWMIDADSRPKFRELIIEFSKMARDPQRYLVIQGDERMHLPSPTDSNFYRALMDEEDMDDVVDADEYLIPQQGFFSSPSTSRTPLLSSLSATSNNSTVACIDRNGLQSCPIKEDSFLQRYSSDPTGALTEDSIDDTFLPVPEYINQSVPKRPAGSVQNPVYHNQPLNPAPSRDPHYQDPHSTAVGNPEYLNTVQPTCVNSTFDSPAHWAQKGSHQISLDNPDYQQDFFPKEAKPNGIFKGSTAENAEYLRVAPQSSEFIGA
Another assay has as its system A431 cells. Kind of assay: Cellular proliferation (Alamar Blue) assay, A431.
For assay [3], the target named is HER2 (A775_G776insYVMA) expressing Ba/F3 stable cell line (Homo sapiens, UniProt P04626, DUP772-775, cells depend on it). Kind of assay: Cellular proliferation (Alamar Blue) assay, HER2 A775_G776insYVMA Ba/F3. As to conditions: 72 hr, read-out: YVMA IC50. The method, boiled down:
as §1

The mark [4] stands for this setting: Homo sapiens, A-431; A431 cells, Alamar Blue, 72 hr; read-out: A431 IC50.
Setting [5] is: Homo sapiens, A-431; A431 cells, 72 hr, Alamar Blue; read-out: A431 IC50.

Read-outs that look alike come from different tables or passages of the source.

Chain of EGFR(D770_N771insSVD) expressing Ba/F3 stable cell line (P00533 with tags, fused parts or gaps DUP768-770): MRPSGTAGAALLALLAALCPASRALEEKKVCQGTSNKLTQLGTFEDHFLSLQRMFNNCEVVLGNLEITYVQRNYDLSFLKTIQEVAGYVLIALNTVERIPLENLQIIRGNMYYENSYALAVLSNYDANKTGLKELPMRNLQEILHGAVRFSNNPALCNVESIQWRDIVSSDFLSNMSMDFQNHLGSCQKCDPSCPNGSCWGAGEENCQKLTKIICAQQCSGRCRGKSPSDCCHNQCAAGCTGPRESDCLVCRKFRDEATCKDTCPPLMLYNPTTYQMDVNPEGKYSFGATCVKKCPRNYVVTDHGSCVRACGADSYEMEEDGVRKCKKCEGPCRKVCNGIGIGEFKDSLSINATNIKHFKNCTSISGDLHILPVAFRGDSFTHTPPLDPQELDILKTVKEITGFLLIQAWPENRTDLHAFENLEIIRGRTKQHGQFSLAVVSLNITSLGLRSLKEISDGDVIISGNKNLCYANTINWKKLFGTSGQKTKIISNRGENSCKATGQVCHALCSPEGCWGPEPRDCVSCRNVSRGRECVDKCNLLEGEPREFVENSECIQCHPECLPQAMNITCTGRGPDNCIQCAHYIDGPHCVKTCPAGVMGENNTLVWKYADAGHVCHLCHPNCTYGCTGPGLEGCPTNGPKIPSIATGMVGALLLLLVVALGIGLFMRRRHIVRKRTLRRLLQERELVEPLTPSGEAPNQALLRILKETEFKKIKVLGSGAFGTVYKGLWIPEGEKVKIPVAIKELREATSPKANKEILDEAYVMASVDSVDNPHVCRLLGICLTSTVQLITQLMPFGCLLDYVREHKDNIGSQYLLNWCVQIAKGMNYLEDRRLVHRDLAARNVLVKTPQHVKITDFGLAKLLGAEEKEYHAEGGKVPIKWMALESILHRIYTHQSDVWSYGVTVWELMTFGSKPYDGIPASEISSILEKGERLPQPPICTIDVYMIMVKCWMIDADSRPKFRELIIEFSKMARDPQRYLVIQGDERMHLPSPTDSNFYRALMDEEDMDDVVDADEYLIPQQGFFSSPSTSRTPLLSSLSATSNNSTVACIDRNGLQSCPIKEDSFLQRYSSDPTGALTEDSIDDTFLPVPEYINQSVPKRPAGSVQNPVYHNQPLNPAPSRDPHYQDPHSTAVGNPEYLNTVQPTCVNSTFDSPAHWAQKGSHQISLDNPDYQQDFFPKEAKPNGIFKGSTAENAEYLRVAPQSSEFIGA
Chain of HER2 (A775_G776insYVMA) expressing Ba/F3 stable cell line (P04626 with tags, fused parts or gaps DUP772-775): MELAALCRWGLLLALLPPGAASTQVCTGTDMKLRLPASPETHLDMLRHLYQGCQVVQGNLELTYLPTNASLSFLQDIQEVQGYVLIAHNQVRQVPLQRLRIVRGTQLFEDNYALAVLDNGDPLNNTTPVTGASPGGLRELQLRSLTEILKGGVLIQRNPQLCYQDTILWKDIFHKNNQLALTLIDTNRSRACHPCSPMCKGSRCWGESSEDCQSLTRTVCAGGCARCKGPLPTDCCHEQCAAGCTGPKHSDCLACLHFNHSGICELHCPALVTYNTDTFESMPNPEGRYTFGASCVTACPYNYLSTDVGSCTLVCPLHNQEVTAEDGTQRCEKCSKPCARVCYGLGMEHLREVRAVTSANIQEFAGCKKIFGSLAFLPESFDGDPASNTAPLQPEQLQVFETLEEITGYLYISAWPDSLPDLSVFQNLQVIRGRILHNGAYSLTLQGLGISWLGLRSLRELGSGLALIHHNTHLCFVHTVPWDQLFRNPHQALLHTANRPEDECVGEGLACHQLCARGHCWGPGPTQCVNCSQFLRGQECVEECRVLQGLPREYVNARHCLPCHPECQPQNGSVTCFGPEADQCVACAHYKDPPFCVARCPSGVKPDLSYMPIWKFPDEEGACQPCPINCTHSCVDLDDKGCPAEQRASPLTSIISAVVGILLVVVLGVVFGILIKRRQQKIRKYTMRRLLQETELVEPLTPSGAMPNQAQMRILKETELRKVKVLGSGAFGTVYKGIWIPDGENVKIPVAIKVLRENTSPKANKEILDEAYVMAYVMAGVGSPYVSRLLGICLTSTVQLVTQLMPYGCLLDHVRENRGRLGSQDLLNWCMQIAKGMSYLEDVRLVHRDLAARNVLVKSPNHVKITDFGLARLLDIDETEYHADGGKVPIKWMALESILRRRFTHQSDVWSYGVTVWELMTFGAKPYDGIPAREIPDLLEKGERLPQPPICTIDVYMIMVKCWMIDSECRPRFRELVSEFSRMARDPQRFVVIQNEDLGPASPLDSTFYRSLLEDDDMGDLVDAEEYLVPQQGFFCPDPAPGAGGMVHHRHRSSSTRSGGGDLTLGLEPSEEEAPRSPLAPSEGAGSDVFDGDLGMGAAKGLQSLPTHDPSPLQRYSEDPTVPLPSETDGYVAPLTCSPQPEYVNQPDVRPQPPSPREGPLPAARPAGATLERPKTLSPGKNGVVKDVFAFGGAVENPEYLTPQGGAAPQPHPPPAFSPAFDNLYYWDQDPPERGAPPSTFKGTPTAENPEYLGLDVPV

As to `C=CC(=O)Nc1ccc(OC)c(Oc2nc(Nc3cnn(C4CCN(C)CC4)c3)ncc2Cl)c1` [Compound 170, N-(3-((5-chloro-2-((1-(1-methylpiperidin-4-yl)-1H-pyrazol-4-yl)amino)pyrimidin-4-yl)oxy)-4-methoxyphenyl)acrylamide], the figures for the GI50 in assay [1], in assay [2] and in assay [3] were more than 10000 nM, more than 10000 nM and 9710 nM, respectively. Also, the IC50 with A431 cells (setting [4]) was more than 10000 nM.
Take `C=CC(=O)Nc1ccc(OC)c(Oc2nc(Nc3cnn(C)c3)ncc2Cl)c1` [Compound 172, N-[3-({5-chloro-2-[(1-methyl-1H-pyrazol-4-yl)amino]pyrimidin-4-yl}oxy)-4-methoxyphenyl] prop-2-enamide]: the GI50 in assay [1], in assay [2] and in assay [3] was more than 10000 nM throughout. Moreover, the IC50 in the assay with A431 cells (setting [4]) is more than 10000 nM.
In the case of `C=CC(=O)Nc1cccc(F)c1CNc1nc(Nc2cnn(C)c2)ncc1Cl` [Compound 173, N-(2-(((5-chloro-2-((1-methyl-1H-pyrazol-4-yl)amino)pyrimidin-4-yl)amino)methyl)-3-fluorophenyl)acrylamide], the values for the GI50 in assay [1], in assay [2] and in assay [3] were 9780 nM, more than 10000 nM and 2000 nM, respectively. In addition, the IC50 in the assay with A431 cells (setting [4]) was more than 10000 nM.
For the compound `C=CC(=O)Nc1ccc(-c2ccccc2)c(Nc2ccnc(Nc3cnn(C)c3)n2)c1` [Compound 175, N-[2-({2-[(1-methyl-1H-pyrazol-4-yl)amino]pyrimidin-4-yl}amino)-[1,1′-biphenyl]-4-yl]prop-2-enamide], the GI50 in assay [1], in assay [2] and in assay [3] was more than 10000 nM in each case. The half-inhibitory concentration (IC50) with A431 cells (setting [4]) is more than 10000 nM.
As to `CN(C)C/C=C/C(=O)Nc1ccc(-c2ccccc2)c(Nc2ccnc(Nc3cnn(C)c3)n2)c1` [Compound 176, (E)-4-(dimethylamino)-N-(2-((2-((1-methyl-1H-pyrazol-4-yl)amino)pyrimidin-4-yl)amino)-[1,1′-biphenyl]-4-yl)but-2-enamide], the GI50 in assay [1] was more than 10000 nM; in assay [2] it was 8020 nM; in assay [3], more than 10000 nM. For the same compound, the IC50 in the assay with A431 cells (setting [4]) is more than 10000 nM.
As for `C=CC(=O)Nc1ccc(-c2ccccc2)c(Nc2nc(Nc3cnn(C)c3)ncc2Cl)c1` [Compound 177, N-(2-((5-chloro-2-((1-methyl-1H-pyrazol-4-yl)amino)pyrimidin-4-yl)amino)-[1,1′-biphenyl]-4-yl)acrylamide], the GI50 in assay [1], in assay [2] and in assay [3] was more than 10000 nM each time. In addition, in the assay with A431 cells (setting [4]), the IC50 was more than 10000 nM.
As for `CN(C)C/C=C/C(=O)Nc1ccc(C#Cc2ccccc2)c(Nc2nc(Nc3cnn(C)c3)ncc2Cl)c1` [Compound 179, (E)-N-(3-((5-chloro-2-((1-methyl-1H-pyrazol-4-yl)amino)pyrimidin-4-yl)amino)-4-(phenylethynyl)phenyl)-4-(dimethylamino)but-2-enamide], the GI50 in assay [1] was more than 10000 nM; in assay [2], more than 10000 nM; in assay [3], 4030 nM. Also, in the assay on A431 cells (setting [4]), the IC50 is more than 10000 nM.
Take `C=CC(=O)Nc1ccc(F)c(Nc2nc(Nc3cnn(C)c3)ncc2-c2cccc(Br)c2)c1` [Compound 201, N-(3-((5-(3-bromophenyl)-2-((1-methyl-1H-pyrazol-4-yl)amino)pyrimidin-4-yl)amino)-4-fluorophenyl)acrylamide]: the GI50 in assay [1] came out at 270 nM; in assay [2] it was 227 nM; in assay [3] it was 424 nM. Moreover, in the assay with A431 cells (setting [5]), the IC50 turned out to be 1520 nM.
Take `C=CC(=O)Nc1cccc(Nc2nc(Nc3cnn(C)c3)ncc2-c2ccc(Br)cc2)c1F` [Compound 202, N-(3-((5-(4-bromophenyl)-2-((1-methyl-1H-pyrazol-4-yl)amino)pyrimidin-4-yl)amino)-2-fluorophenyl)acrylamide]: the values for the GI50 in assay [1], in assay [2] and in assay [3] were 35 nM, 34 nM and 217 nM, respectively. The IC50 with A431 cells (setting [5]) stood at 44 nM.
In the same order, the values of `C=CC(=O)Nc1ccc(F)c(Nc2nc(Nc3cn(C)nc3Cl)ncc2-c2ccc(Br)cc2)c1` [Compound 204, N-(3-((5-(4-bromophenyl)-2-((3-chloro-1-methyl-1H-pyrazol-4-yl)amino)pyrimidin-4-yl)amino)-4-fluorophenyl)acrylamide] are 93 nM, 131 nM, 688 nM and 28 nM.
Consider `C=CC(=O)Nc1ccc(F)c(Nc2nc(Nc3cnn(C4COC4)c3)ncc2-c2ccc(Br)cc2)c1` [Compound 205, N-(3-((5-(4-bromophenyl)-2-((1-(oxetan-3-yl)-1H-pyrazol-4-yl)amino)pyrimidin-4-yl)amino)-4-fluorophenyl)acrylamide], for which the GI50 in assay [1] was 39 nM; in assay [2] it was 73 nM; in assay [3], 278 nM. In addition, the IC50 in the assay with A431 cells (setting [5]) was 132 nM.
Turning to `C=CC(=O)Nc1ccc(F)c(Nc2nc(Nc3cnn(CCO)c3)ncc2-c2ccc(Br)cc2)c1` [Compound 206, N-(3-((5-(4-bromophenyl)-2-((1-(2-hydroxyethyl)-1H-pyrazol-4-yl)amino)pyrimidin-4-yl)amino)-4-fluorophenyl)acrylamide], the GI50 in assay [1] stood at 35 nM; in assay [2], 44 nM; in assay [3] it was 120 nM. Also, the IC50 with A431 cells (setting [5]) was 36 nM.
Regarding `C=CC(=O)Nc1ccc(F)c(Nc2nc(Nc3cn(CCN(C)C)nc3Cl)ncc2-c2ccc(Br)cc2)c1` [Compound 208, N-(3-((5-(4-bromophenyl)-2-((3-chloro-1-(2-(dimethylamino)ethyl)-1H-pyrazol-4-yl)amino)pyrimidin-4-yl)amino)-4-fluorophenyl)acrylamide], the GI50 stood at 76 nM in assay [1], 121 nM in assay [2] and 402 nM in assay [3]. In addition, the IC50 with A431 cells (setting [5]) stood at 46 nM.
As for `C=CC(=O)Nc1ccc(F)c(Nc2cc(Nc3cnn(C)c3)ncc2-c2ccc(C(F)(F)F)cc2)c1` [Compound 210, N-[4-fluoro-3-({2-[(1-methyl-1H-pyrazol-4-yl)amino]-5-[4-(trifluoromethyl)phenyl]pyridin-4-yl}amino)phenyl]prop-2-enamide], the GI50 in assay [1] amounted to 2840 nM; in assay [2], 2900 nM; in assay [3] it was 3580 nM. Further, the IC50 in the assay with A431 cells (setting [5]) came out at 4480 nM.
For the compound `C=CC(=O)Nc1ccc(F)c(N(C)c2nc(Nc3cnn(C)c3)ncc2-c2ccc(C(F)(F)F)cc2)c1` [Compound 228, N-(4-fluoro-3-(methyl(2-((1-methyl-1H-pyrazol-4-yl)amino)-5-(4-(trifluoromethyl)phenyl)pyrimidin-4-yl)amino)phenyl)acrylamide], the GI50 amounted to 952 nM in assay [1], 891 nM in assay [2] and 1250 nM in assay [3]. Also, in the assay with A431 cells (setting [5]), the IC50 was determined as 4120 nM.
Regarding `C=CC(=O)Nc1cc(Nc2nc(Nc3cnn(C)c3)ncc2-c2ccc(C(F)(F)F)cc2)ccc1F` [Compound 238, N-(2-fluoro-5-((2-((1-methyl-1H-pyrazol-4-yl)amino)-5-(4-(trifluoromethyl)phenyl)pyrimidin-4-yl)amino)phenyl)acrylamide], the GI50 in assay [1] came to 312 nM; in assay [2] it was 90 nM; in assay [3] it was 3010 nM. Moreover, the IC50 in the assay on A431 cells (setting [5]) stood at 617 nM.
Taken in the same sequence, the figures for `C=CC(=O)Nc1cc(F)cc(Nc2nc(Nc3cnn(C)c3)ncc2-c2ccc(C(F)(F)F)cc2)c1` [Compound 239, N-(3-fluoro-5-((2-((1-methyl-1H-pyrazol-4-yl)amino)-5-(4-(trifluoromethyl)phenyl)pyrimidin-4-yl)amino)phenyl)acrylamide] were 36 nM, 91 nM, 251 nM and 229 nM.
Taken in the same sequence, the figures for `C=CC(=O)Nc1ccc(F)c(Nc2nc(Nc3cnn(CC(C)(C)O)c3)ncc2-c2ccc(C(F)(F)F)cc2)c1` [Compound 240, N-(4-fluoro-3-((2-((1-(2-hydroxy-2-methylpropyl)-1H-pyrazol-4-yl)amino)-5-(4-(trifluoromethyl)phenyl)pyrimidin-4-yl)amino)phenyl)acrylamide] were 395 nM, 861 nM, 2010 nM and 441 nM.
As to `C=CC(=O)Nc1ccc(F)c(Nc2nc(Nc3cn(CCO)nc3Cl)ncc2-c2ccc(C(F)(F)F)cc2)c1` [Compound 241, N-(3-((2-((3-chloro-1-(2-hydroxyethyl)-1H-pyrazol-4-yl)amino)-5-(4-(trifluoromethyl)phenyl)pyrimidin-4-yl)amino)-4-fluorophenyl)acrylamide], the GI50 in assay [1] was 105 nM; in assay [2], 146 nM; in assay [3], 343 nM. For the same compound, the 50% inhibitory concentration (IC50) in the assay on A431 cells (setting [5]) came out at 105 nM.
On to `C=CC(=O)Nc1ccc(F)c(Nc2nc(Nc3cnn(C)c3)ncc2C#CC2CC2)c1` [Compound 244, N-(3-{[5-(2-cyclopropylethynyl)-2-[(1-methyl-1H-pyrazol-4-yl)amino]pyrimidin-4-yl]amino}-4-fluorophenyl)prop-2-enamide], for which the GI50 stood at 1890 nM in assay [1], 2180 nM in assay [2] and 2250 nM in assay [3]. The IC50 in the assay on A431 cells (setting [5]) was found to be 1810 nM.
In the same order, the values of `C=CC(=O)Nc1ccc(F)c(Nc2nc(Nc3cn(C)nc3Cl)ncc2-c2ccc(C(F)(F)F)cc2)c1` [Compound 245, N-[3-({2-[(3-chloro-1-methyl-1H-pyrazol-4-yl)amino]-5-[4-(trifluoromethyl)phenyl]pyrimidin-4-yl}amino)-4-fluorophenyl]prop-2-enamide] are 91 nM, 115 nM, 202 nM and 63 nM.

Values taken from US12686673B2 (Blueprint Medicines Corporation, priority 2020, dated 2026).
